Where two headings read alike, the source gives them in different places.
How the values were obtained:
[1] = design: method as in PMID 29783765; conditions: previously assessed; cited from earlier work
[2] = tested on: A-431 cells; experiment: Cancer cell line viability screen (alamarBlue), A431; conditions: Homo sapiens, A-431, 72 h, read-out: IC50 A431
Experimental: (§1) This included pancreatic, bladder, prostate, breast, chordoma, and lung cancer cell lines while a skin fibroblast cell line was used as a toxicity control [33, 34, 35, 36].
(§2) Cells were seeded in 384-well plates and were treated with test compound in quadruplicate 24 h after plating. Cell viability was assessed at 72 h using alamarBlue (ThermoFisher, Waltham, MA, USA). […] IC50 values were determined by nonlinear regression using GraphPad PrismTM software (GraphPad Software Inc., San Diego, CA, US).

[3] = tested on: MCF-7 cells; experiment: Cancer cell line viability screen (alamarBlue), MCF7; conditions: Homo sapiens, MCF7, 72 h, read-out: IC50 MCF7
Experimental: as §1
(§3) DU145 and MCF-7 cells were cultured in MEM medium supplemented with 10% FBS and 1% penicillin/streptomycin. […] Cells were seeded in 384-well plates and were treated with test compound in quadruplicate 24 h after plating. Cell viability was assessed at 72 h using alamarBlue (ThermoFisher, Waltham, MA, USA). […] IC50 values were determined by nonlinear regression using GraphPad PrismTM software (GraphPad Software Inc., San Diego, CA, US).

[4] = tested on: 5637 cells; experiment: Cancer cell line viability screen (alamarBlue), 5637; conditions: for IC50: 72 h, read-out: IC50 5637
Experimental: as §1, §3

[5] = tested on: kinases in SUM159 cell lysates; experiment: MIBS kinome profiling (MIB-MS competitive displacement); type: binding; conditions: 1 μM compound vs DMSO, SUM159 lysate; for kinome profile: 350-400 kinases detected
Experimental: We then assessed the kinome profile of thiadiazinones 16, 17, and 26 all at 1 μM using a multiplexed kinase inhibitor bead set and quantitative mass spectrometry for detection of kinase peptides (MIB-MS). The MIB-MS proteomics was able to detect between 350 and 400 kinases in the cell lysates and competitive displacement of specific kinases from the beads was used to determine the kinome profile of the thiadiazinone kinase inhibitors.
Previously described. Briefly, multiplexed inhibitor beads (MIBS) affinity chromatography/MS analysis: SUM159 cells were cultured in a 50:50 mixture of DMEM and Nutrient Mixture F-12 medium (Gibco) supplemented with 5% fetal bovine serum, 1% anti/anti, […] insulin, and […] hydrocortisone. Cells were maintained at 37 °C in a humidified 5% CO2 atmosphere. SUM159 cells were grown to 80% confluency, washed twice with PBS, and harvested by scraping cells in lysis buffer [50 mM HEPES, pH 7.5, 150 mM NaCl, 0.5% Triton X-100, 1 mM EDTA, 1 mM EGTA, 10 mM NaF, 2.5 mM Na3VO4, complete protease inhibitor cocktail (Roche, Basel, Switzerland), phosphatase inhibitor cocktail 2, and 3 (Sigma, St. Louis, MO, USA)]. Lysates were sonicated then clarified by centrifugation at 14000 V g for 15 min at 4 °C. Lysate was then filtered through a […] syringe filter and frozen at −80 °C until use. Protein concentration was quantified using a Bradford assay the day of the experiment. DMSO or the indicated concentration of 16, 17, and 26 were added to lysate containing 4 mg of total protein. Lysates were vortexed briefly then incubated for 30 min on ice. Kinases were affinity purified as previously described. Briefly, lysates were diluted to 1.33 mg mL^−1 with lysis buffer then NaCl concentration brought to 1 M.
Diluted lysates were passed over a mixture of […] of settled beads of each of the following inhibitors conjugated to ECH Sepharose beads: Purvalanol B, PP58, VI-16832, UNC21474A, UNC8088A, and […] of settled beads conjugated to CTx-0294885 and VI-16832 [69]. The kinase inhibitor–bead conjugates were previously equilibrated in high-salt buffer (50 mM HEPES pH 7.5, 1M NaCl, 0.5% Triton X-100, 1 mM EDTA, and 1 mM EGTA). MIBs columns were sequentially washed with high-salt buffer, low-salt buffer (50 mm HEPES pH 7.5, 150 mM NaCl, 0.5% Triton X-100, 1 mM EDTA, and 1 mM EGTA), and SDS buffer (50 mm HEPES pH 7.5, 150 mm NaCl, 0.5% Triton X-100, 1 mm EDTA, 1 mm EGTA, and 0.1% SDS). Proteins were eluted by boiling samples in elution buffer (100 mM Tris·HCl pH 6.8, 0.5% SDS, and 1% β-mercaptoethanol) for 15 min twice. Dithiothreitol (DTT) was added to a final concentration of 5 mm and samples were incubated at 60 °C for 25 min. Samples were then cooled to room temperature on ice and alkylated by adding iodoacetamide to a final concentration of 20 mm for 30 min in the dark at room temperature. Samples were then concentrated in 10K Amicon Ultra centrifugal concentrators (Millipore, Burlington, MA, USA) followed by methanol and chloroform precipitation of proteins. The final protein pellets were re-suspended in 50 mM HEPES pH 8.0 and incubated with trypsin at 37 °C overnight. Residual detergent was removed by three sequential ethyl acetate extractions then desalted using Pierce C18 spin columns (Thermo Scientific, Waltham, MA, USA) according to the manufacturer’s protocol.

[6] = tested on: U-CH2 cells; experiment: Cancer cell line viability screen (alamarBlue), UCH2; conditions: UCH2, 72 h, read-out: IC50 UCH2
Experimental: as §1, §2

[7] = tested on: U-CH1 cells; experiment: Cancer cell line viability screen (alamarBlue), UCH1; conditions: UCH1, 72 h, read-out: IC50 UCH1
Experimental: as §1, §2

[8] = tested on: PANC-1 cells; experiment: Cancer cell line viability screen (alamarBlue), PANC1; conditions: Homo sapiens, PANC-1, 72 h, read-out: IC50 PANC1
Experimental: as §1, §3

[9] = tested on: DU145 cells; experiment: Cancer cell line viability screen (alamarBlue), DU145; conditions: Homo sapiens, DU-145, 72 h, read-out: IC50 DU145
Experimental: as §1, §3

[10] = tested on: WS-1 cell line; experiment: Toxicity control viability screen (alamarBlue), WS-1 skin fibroblasts; conditions: WS1, 72 h, read-out: IC50 WS-1
Experimental: as §1, §3

[11] = tested on: MCF-7 cells; conditions: read-out: IC50 MCF7, positive control; cited from earlier work
[12] = tested on: WS-1 cell line; conditions: read-out: IC50 WS-1, positive control; cited from earlier work
[13] = tested on: A-431 cells; conditions: read-out: IC50 A431, positive control; cited from earlier work
[14] = tested on: DU145 cells; design: method as in PMID 28373427; conditions: positive control; cited from earlier work
[15] = Chemical stability of thiadiazinones under aqueous, nucleophile, oxidizing and reducing conditions; type: physicochemical; conditions: tested similarly to 3,5-bis(phenylamino)-4H-1,2,6-thiadiazin-4-one: neutral, acidic, slightly basic aqueous, amine or thiol nucleophiles
Excerpt: It is important to note that the stability of dianilinothiadiazinones in biological systems has previously been assessed.

[16] = tested on: PANC-1 cells; design: method as in PMID 22487525; conditions: positive control; read-out: IC50 PANC1, positive control; cited from earlier work
[17] = tested on: 5637 cells; design: method as in PMID 23887605; conditions: positive control; cited from earlier work

| Structure (SMILES) | IC50 [2] [µM] | IC50 [3] [µM] | IC50 [4] [µM] | kinases competitively displaced from the beads (hits) [5] | kinome profile [5] | IC50 [6] [µM] | IC50 [7] [µM] | IC50 [8] [µM] | IC50 [9] [µM] | melting point | IC50 [10] [µM] | other results |
| --- | --- | --- | --- | --- | --- | --- | --- | --- | --- | --- | --- | --- |
| O=c1c(Nc2ccccc2)nsnc1Nc1ccccc1 [3,5-Bis(phenylamino)-4H-1,2,6-thiadiazin-4-one] |  |  |  |  |  |  |  |  |  |  |  | stability [1]: stable to neutral, acidic, or slightly basic aqueous conditions, the presence of amine or thiol nucleophiles, and oxidizing and reducing conditions |
| O=c1c(Nc2ccc3[nH]ncc3c2)nsnc1-c1ccnc(F)c1 [Compound 26, 5-(2-Fluoropyridin-4-yl)-3-[(1H-indazol-5-yl)amino]-4H-1,2,6-thiadiazin-4-one] | > 100 | 50 | 8.4 | showing affinity for ACVR1B, ACVR2A, and STK35 | narrow spectrum kinome profile but was a weak inhibitor | > 100 | 84 | > 100 | 5.7 | 280 °C (dec.) | > 100 |  |
| Cc1ccc(Nc2nsnc(-c3ccnc4[nH]ccc34)c2=O)cc1O [Compound 17, 3-[(3-Hydroxy-4-methylphenyl)amino]-5-(1H-pyrrolo[2,3-b]pyridin-4-yl)-4H-1,2,6-thiadiazin-4-one] | > 100 | 14 | 2.1 | AKT2, MAP2K4, MAP2K1, and STK35 being just below the threshold | narrow spectrum kinome profile | > 100 | > 100 | > 100 | 23 | 292 to 293 °C | > 100 |  |
| CS(=O)(=O)CCNCc1ccc(-c2ccc3ncnc(Nc4ccc(OCc5cccc(F)c5)c(Cl)c4)c3c2)o1 [lapatinib] |  |  |  |  |  |  |  |  |  |  |  | IC50 [11]: 6.3 µM; IC50 [12]: 13 µM; IC50 [13]: 0.1 µM |
| CC(=O)O[C@@]12CO[C@@H]1C[C@H](O)[C@@]1(C)C(=O)[C@H](O)C3=C(C)[C@@H](OC(=O)[C@H](O)[C@@H](NC(=O)OC(C)(C)C)c4ccccc4)C[C@@](O)([C@@H](OC(=O)c4ccccc4)[C@H]21)C3(C)C [docetaxel] |  |  |  |  |  |  |  |  |  |  |  | IC50 [14]: 0.005 µM |
| O=c1c(Nc2cccc(O)c2)nsnc1-c1ccnc2[nH]ccc12 [Compound 16, 3-[(3-Hydroxyphenyl)amino]-5-(1H-pyrrolo[2,3-b]pyridin-4-yl)-4H-1,2,6-thiadiazin-4-one] | > 100 | 18 | 1.6 | weak interactions on MAP4K5, MAP4K3, PRKCD, and PKN1 just below the threshold | narrow spectrum kinome profile | > 100 | 46 | 33 | 41 | 326 to 327 °C | > 100 | increase in potency on the bladder cancer cell line ([4]; 16 relative to methoxy analogue 15): 10 fold; stability [15]: the same results |
| Cc1[nH]c2ccccc2c1CCNCc1ccc(/C=C/C(=O)NO)cc1 [panobinostat] |  |  |  |  |  |  |  |  |  |  |  | IC50 [16]: 1 µM |
| Cc1ccc(Nc2nccc(N(C)c3ccc4c(C)n(C)nc4c3)n2)cc1S(N)(=O)=O [pazopanib] |  |  |  |  |  |  |  |  |  |  |  | IC50 [17]: 15 µM |
